Among the test systems are A498 renal; A549 NSCLC; M14 melanoma; NCI-H460 lung; OVCAR-3 ovarian; RXF 393 renal; SNB-19 CNS; TK-10 renal; UO-31 renal; NCI-H226 lung.
Assay in all cases: NCI-60 cell line screen, 48 h

Molecules are shown by their SMILES.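 Growth conditions: 96-well plates. Treatment: test compound, 48 hours, 5 concentrations. Analysis: linear interpolation between bracketing concentrations; unreached endpoints set to highest concentration. The concentration for 50% growth inhibition is given as GI50. TGI: concentration producing complete growth inhibition.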

Consider `COc1cccc(N=Cc2c3ccccc3c(=O)n3c2oc2ccccc23)c1`, for which the GI50 in the assay with A498 renal was 17.2 µM; in the assay on A549 NSCLC, 4.84 µM; in the assay on M14 melanoma, 12.2 µM; in the assay on NCI-H460 lung it was 11.3 µM; in the assay on OVCAR-3 ovarian it was 4.44 µM; in the assay with SNB-19 CNS, 52.2 µM. Besides, the values for the GI50 in the assay with TK-10 renal and with UO-31 renal were 2.95 µM and 42.7 µM, respectively. The TGI was 61.4 µM in the assay on A498 renal; 23.7 µM with A549 NSCLC; > 100 µM in the assay on M14 melanoma; > 100 µM with NCI-H460 lung; 45.3 µM with OVCAR-3 ovarian; 20.9 µM in the assay with RXF 393 renal. The figures for the TGI with SNB-19 CNS, in the assay on TK-10 renal and in the assay with UO-31 renal were > 100 µM, 7.69 µM and > 100 µM, respectively.

On to `O=[N+]([O-])c1ccc2nnnn2c1`, for which the TGI in the assay with A549 NSCLC was > 100 µM; in the assay on M14 melanoma it was > 100 µM; with NCI-H226 lung it was 47.3 µM; with NCI-H460 lung, > 100 µM; in the assay on OVCAR-3 ovarian, 35.2 µM; in the assay with RXF 393 renal it was > 100 µM. The TGI in the assay on SNB-19 CNS, with TK-10 renal and in the assay on UO-31 renal was > 100 µM each time.

For the compound `O=C(CC(=O)N1N=C(c2ccccc2)C(N=Nc2ccc(Cl)cc2)C1=O)Nc1ccccc1Cl` (stereo not given), the TGI in the assay on A549 NSCLC is > 100 µM; in the assay on M14 melanoma, > 100 µM; in the assay with NCI-H226 lung, 62.6 µM; in the assay on NCI-H460 lung, > 100 µM; in the assay with OVCAR-3 ovarian, 71.4 µM; in the assay with SNB-19 CNS, 61 µM. Moreover, the figures for the TGI in the assay on TK-10 renal and with UO-31 renal were 38.1 µM and 78 µM, respectively.

For `COc1cc(Cc2cc(OC)c(OC)c(OC)c2)ccc1O`, the TGI was > 100 µM with A549 NSCLC; > 100 µM with M14 melanoma; > 100 µM in the assay with NCI-H226 lung; 52.4 µM in the assay on OVCAR-3 ovarian; > 100 µM with SNB-19 CNS; > 100 µM in the assay on TK-10 renal. Besides, the TGI in the assay on UO-31 renal is > 100 µM.

Consider `NC1C2(CCCCCC2)NC(=O)C12CCCCCC2` (stereo not given), for which the TGI with A498 renal, in the assay with A549 NSCLC, with M14 melanoma, in the assay with NCI-H460 lung, in the assay with OVCAR-3 ovarian and in the assay on RXF 393 renal was > 100 µM in each case. In addition, the TGI in the assay with SNB-19 CNS, in the assay with TK-10 renal and in the assay on UO-31 renal was > 100 µM in each case.

On to `CC(C)=CC(=O)N1CCN(C(=O)C=C(C)C)CC1`, for which the TGI with A498 renal, with A549 NSCLC, in the assay on M14 melanoma, in the assay on NCI-H460 lung, in the assay with OVCAR-3 ovarian and in the assay with SNB-19 CNS was > 100 µM each time. Also, the TGI in the assay on TK-10 renal and in the assay on UO-31 renal was > 100 µM throughout.

Regarding `N#CCCN(c1ccc(/C=C2\N=C(c3ccc(Cl)cc3)OC2=O)cc1)S(=O)(=O)c1ccccc1`, the TGI in the assay with A498 renal, with A549 NSCLC, in the assay with M14 melanoma, in the assay with NCI-H226 lung, in the assay on NCI-H460 lung and in the assay with OVCAR-3 ovarian was > 100 µM throughout. Also, the TGI in the assay with SNB-19 CNS, in the assay with TK-10 renal and in the assay on UO-31 renal was > 100 µM throughout.

Take `Nc1c(-c2ccc(Br)cc2)[n+]([O-])c2ccccc2[n+]1[O-]`: the TGI in the assay with A498 renal, with A549 NSCLC, in the assay on M14 melanoma, with NCI-H226 lung, with NCI-H460 lung and in the assay on OVCAR-3 ovarian was > 100 µM in each case. The TGI in the assay on SNB-19 CNS and with UO-31 renal was > 100 µM in each case.

For `COc1cc(C(=O)O[C@H](C(N)=O)[C@]2(C)CO2)c2ccccc2c1`, the GI50 in the assay with A549 NSCLC is 15.4 µM; in the assay on M14 melanoma, 15.1 µM; in the assay on NCI-H226 lung it was 20.1 µM; in the assay with NCI-H460 lung, 10.4 µM; in the assay with OVCAR-3 ovarian, 22.7 µM; in the assay on RXF 393 renal, 17.3 µM. For the same compound, the GI50 in the assay with SNB-19 CNS was 15.8 µM; in the assay with TK-10 renal, 19.7 µM; in the assay on UO-31 renal it was 33.7 µM. Further, the TGI came to 73 µM in the assay with A549 NSCLC; 40 µM with M14 melanoma; 38.4 µM in the assay on NCI-H226 lung; 57.1 µM in the assay on NCI-H460 lung; 45.2 µM with OVCAR-3 ovarian; 47.3 µM in the assay on RXF 393 renal. The TGI was 30.3 µM with SNB-19 CNS, 37.5 µM with TK-10 renal and > 100 µM in the assay with UO-31 renal.

`N#CCCN(CCC#N)c1ccc(/C=C2\N=C(CN3C(=O)c4ccccc4C3=O)OC2=O)cc1`: the TGI in the assay on A498 renal, in the assay with A549 NSCLC, in the assay on M14 melanoma, with NCI-H226 lung, in the assay with NCI-H460 lung and with OVCAR-3 ovarian was > 100 µM throughout. Also, the TGI with SNB-19 CNS and in the assay with UO-31 renal was > 100 µM in each case.

As to `Cc1ccc(N=NC(C(=O)c2ccccc2)C(=O)c2ccccc2)cc1`, the TGI with A498 renal was > 100 µM; with A549 NSCLC, > 100 µM; in the assay on M14 melanoma it was 34.5 µM; with NCI-H226 lung, 40.6 µM; in the assay with OVCAR-3 ovarian, > 100 µM; in the assay with SNB-19 CNS, 86.4 µM. Moreover, the TGI in the assay on TK-10 renal is > 100 µM; in the assay on UO-31 renal, 44.4 µM.

Consider `Cc1c2c(nn1-c1ccc(S(=O)(=O)/N=C3\SCC(=O)N3C(=O)c3ccccc3)cc1)-c1ccccc1CC2`, for which the GI50 in the assay with A549 NSCLC was > 100 µM; with M14 melanoma, 22.9 µM; with NCI-H226 lung, 24 µM; with NCI-H460 lung it was 47.5 µM; with OVCAR-3 ovarian, 15.8 µM; in the assay on RXF 393 renal, 28.8 µM. Further, the figures for the GI50 with TK-10 renal and in the assay on UO-31 renal were 98 µM and 67.4 µM, respectively. Also, the TGI in the assay with A549 NSCLC was > 100 µM; with M14 melanoma it was 47.1 µM; in the assay on NCI-H226 lung, 56.4 µM; in the assay on NCI-H460 lung, > 100 µM; with OVCAR-3 ovarian it was 39.1 µM; in the assay with RXF 393 renal, 77.5 µM. The TGI in the assay with TK-10 renal and in the assay with UO-31 renal was > 100 µM in each case.

For the origin of these results see PubChem BioAssay (NCI).
